# In EPA's ToxValDB 9.5:
# “And” between values parts separate entries of the source, which are not always exact repeats. Equal entries are not always repeated.
# Columns and labels:
# Monkey [1] = settings: duration: 13 weeks, oral, flavoured beverage, F, Cynomolgus, Estrogenic effects on maturation of vaginal epithelial cells
# Rattus norvegicus [2] = settings: inhalation, M/F
# Oryctolagus sp. [3] = settings: subchronic; inhalation; M/F; sedation
# Rattus norvegicus [4] = settings: for NOEL: subchronic, oral
# Oryctolagus sp. [5] = assay: LC60; higher = less toxic; settings: acute; oral
# Rattus norvegicus [6] = settings: for LD50 / LC50: acute
# Rattus norvegicus [7] = assay: LD0; higher = less toxic; settings: acute; dermal; semiocclusive; Sprague-Dawley
# Oryctolagus sp. [8] = assay: LD0; higher = less toxic; settings: acute; dermal; semiocclusive; New Zealand
# Rattus norvegicus [9] = assay: LC100; higher = less toxic; settings: acute; inhalation; Wistar
# Oryctolagus sp. [10] = settings: for LD50: acute
# Mus musculus [11] = settings: oral; for NOAEL: gavage
# Oryctolagus sp. [12] = assay: LD40; higher = less toxic; settings: acute; dermal; occlusive
# Mus musculus [13] = settings: subchronic; inhalation; M/F; mortality
# Mus musculus [14] = assay: FEL; higher = less toxic; settings: subchronic; inhalation; M/F; mortality
# Mus musculus [15] = settings: chronic, duration: 92 days, inhalation, intermittent
# Canidae = settings: short-term; duration: 22 days; oral; Beagle
# Monkey [16] = settings: chronic; duration: 363 days; oral; diet
# Rattus norvegicus [17] = settings: subchronic; duration: 90 days; oral; drinking water; M/F; Fischer 344; neurological
# Rattus norvegicus [18] = settings: chronic; duration: 2 years; oral; drinking water; M/F; Fischer 344; neurotoxicity
# Mus musculus [19] = settings: chronic; duration: 2 years; oral; drinking water; M/F; B6C3F1; Hardarian gland & lung tumors (males)
# Mus musculus [20] = assay: LD100; higher = less toxic; settings: acute; oral; TAC:SWfBr
# Rattus norvegicus [21] = settings: subchronic; oral; gavage; M/F; Fischer 344; Deaths + Clinical Observation: Nasal and eye discharge Lacrimation Salivation Tremors + Functional Observational Battery: Lacrimation or …
# [22] = short-term, inhalation, M, Sprague-Dawley
# [23] = short-term, inhalation, New Zealand
# [24] = short-term, duration: 28 days, oral, gavage, Sprague-Dawley
# [25] = reproduction developmental, duration: 10 weeks, oral, drinking water, F, Fischer 344
# [26] = reproduction developmental, duration: 10 weeks, oral, drinking water, M, Fischer 344
# [27] = reproduction developmental, duration: 80 days, oral, drinking water, Long-Evans
# [28] = subchronic, duration: 13 weeks, oral, gavage, Fischer 344
smiles,measurement,setting,value
CC1CCCC(O)CCCCCc2cc(O)cc(O)c2C(=O)O1 (centres undefined),NOEL,Monkey [1],0.05 mg/kg-day
same,NOEL,Monkey [1]; subchronic,0.05 mg/kg-day
COCC(C)O (centres undefined) [1-Methoxy-2-propanol],LOAEL,"Rattus norvegicus [2]; subchronic, sedation",11100 mg/m3
same,NOAEL,"Rattus norvegicus [2]; subchronic, sedation",3680 mg/m3
same,LOAEL,Oryctolagus sp. [3],11100 mg/m3
same,NOAEL,Oryctolagus sp. [3],3680 mg/m3
same,NOEL,"Rattus norvegicus [4]; duration: 35 days, gavage, Kidney: Histopathology + Liver: Histopathology",947 mg/kg-day
"Cc1ccc(C)c(O)c1 [2,5-Dimethylphenol]",LC60,Oryctolagus sp. [5],938 mg/kg
same,LD50,Rattus norvegicus [6]; oral,444 mg/kg
"O=[N+]([O-])C(CO)(CO)CO [2-(Hydroxymethyl)-2-nitro-1,3-propanediol]",LC50,"Rattus norvegicus [6]; Inhalation, Sprague-Dawley",2.4 µg/mL
same,LC50,"Rattus norvegicus [6]; inhalation, particle, Sprague-Dawley",> 2.12 µg/mL
same,LD50,"Rattus norvegicus [6]; oral, gavage",≥ 990 mg/kg and ≤ 1000 mg/kg
same,LD0,Rattus norvegicus [7],> 5000 mg/kg
same,LD0,Oryctolagus sp. [8],> 2000 mg/kg
CC(C)[N+](=O)[O-] [2-Nitropropane],LC100,Rattus norvegicus [9],53600 mg/m3
same,LC50,"Rattus norvegicus [6]; inhalation, Sprague-Dawley",2620 mg/m3 and 1460 mg/m3
same,LC50,"Rattus norvegicus [6]; inhalation, Wistar",≥ 12.1 µg/mL and ≤ 14.4 µg/mL
same,NOAEL,"Rattus norvegicus [6]; developmental, duration: 15 days, injection, Intraperitoneal, Sprague-Dawley",< 170 mg/kg-day
same,NOAEL,"Rattus norvegicus [6]; reproduction developmental, duration: 15 days, injection, Intraperitoneal, F, Sprague-Dawley",170 mg/kg-day
same,LOAEL,Rattus norvegicus [6]; [22],754 mg/m3
same,NOAEL,Rattus norvegicus [6]; [22],98.4 mg/m3
same,LD50,Oryctolagus sp. [10]; dermal,> 200 mg/kg
same,LD50,"Oryctolagus sp. [10]; dermal, New Zealand",> 2000 mg/kg
same,LD50,"Oryctolagus sp. [10]; oral, gavage",≥ 500 mg/kg and ≤ 750 mg/kg
same,LOAEL,Oryctolagus sp. [10]; [23],754 mg/m3
same,NOAEL,Oryctolagus sp. [10]; [23],98.4 mg/m3
same,LD50,"Mus musculus [11]; acute, CD1",393 mg/kg and ≥ 346 mg/kg and ≤ 446 mg/kg
same,LOAEL,"Rattus norvegicus [2]; chronic, liver focal vacuolization and nodules",78 mg/m3
same,LOAEL,"Rattus norvegicus [4]; chronic, duration: 22 months, inhalation, intermittent, Liver: Lesions",78 mg/m3
N#Cc1cccnc1 [3-Pyridinecarbonitrile],LD50,"Rattus norvegicus [6]; oral, gavage, Sprague-Dawley",1460 mg/kg and 1480 mg/kg
same,LD50,"Rattus norvegicus [6]; oral, gavage, Wistar",1100 mg/kg
same,LOAEL,Rattus norvegicus [6]; [24],30 mg/kg-day
same,NOAEL,Rattus norvegicus [6]; [24],5 mg/kg-day
same,LD40,Oryctolagus sp. [12],≥ 2000 mg/kg and ≤ 4000 mg/kg
CC#N [Acetonitrile],NOAEL,Mus musculus [13],336 mg/m3
same,FEL,Mus musculus [14],672 mg/m3
same,NOAEL,Mus musculus [15]; Blood: Decreased hematocrit + Erythrocytes: Decreased cell count + Liver: Hepatic lesions,168 mg/m3
same,NOAEL,Mus musculus [15]; Liver: Increased relative weight,168 mg/m3
C=CC(N)=O [Acrylamide],NOAEL,Canidae,5 mg/kg-day
same,NOAEL,"Rattus norvegicus [6]; chronic, duration: 93 days, oral, drinking water, Fischer 344",0.2 mg/kg-day
same,NOAEL,"Rattus norvegicus [6]; chronic, oral, drinking water, Fischer 344",0.1 mg/kg-day
same,NOAEL,"Rattus norvegicus [6]; developmental, oral, gavage, Sprague-Dawley / Mice: Swiss",15 mg/kg-day
same,LOAEL,Rattus norvegicus [6]; [25],2 mg/kg-day
same,NOAEL,Rattus norvegicus [6]; [25],0.5 mg/kg-day
same,NOAEL,"Rattus norvegicus [6]; reproduction developmental, duration: 10 weeks, oral, drinking water, Long-Evans, generation: F0",5 mg/kg-day
same,LOAEL,Rattus norvegicus [6]; [26],2 mg/kg-day
same,NOAEL,Rattus norvegicus [6]; [26],0.5 mg/kg-day
same,LOAEL,Rattus norvegicus [6]; [27],2.8 mg/kg-day
same,NOAEL,Rattus norvegicus [6]; [27],1.5 mg/kg-day
same,NOAEL,"Rattus norvegicus [6]; reproduction developmental, oral, drinking water, Fischer 344, generation: F0",0.5 mg/kg-day
same,NOAEL,"Rattus norvegicus [6]; reproduction developmental, oral, drinking water, Fischer 344, generation: F1",2 mg/kg-day
same,NOAEL,"Rattus norvegicus [6]; reproduction developmental, oral, drinking water, Fischer 344, generation: F2",2 mg/kg-day
same,NOAEL,"Rattus norvegicus [6]; reproduction developmental, oral, gavage, F, Sprague-Dawley / Mice: Swiss",2.5 mg/kg-day
same,NOAEL,"Rattus norvegicus [6]; short-term, duration: 28 days, oral, drinking water, Fischer 344",≥ 4.1 mg/kg-day and ≤ 4.3 mg/kg-day
same,NOAEL,Rattus norvegicus [6]; [28],5 mg/kg-day
same,NOAEL,Monkey [16],≥ 1 mg/kg-day and ≤ 3 mg/kg-day
same,NOAEL,"Mus musculus [11]; developmental, Swiss",15 mg/kg-day
same,NOAEL,"Mus musculus [11]; reproduction developmental, F, Swiss",2.5 mg/kg-day
same,NOAEL,Rattus norvegicus [17],0.2 mg/kg-day
same,NOAEL,Rattus norvegicus [18],0.67 mg/kg-day and 1.88 mg/kg-day
same,LOEL,Mus musculus [19],1.05 mg/kg-day
same,NOEL,"Rattus norvegicus [4]; duration: 90 days, drinking water, Nerve: Damage",0.2 mg/kg-day
C[N+](C)(C)Cc1ccccc1.[Cl-] [Benzyltrimethylammonium chloride],LD100,Mus musculus [20],1600 mg/kg
same,LD50,"Rattus norvegicus [6]; oral, gavage, Fischer 344",180 mg/kg
same,NOAEL,"Rattus norvegicus [6]; short-term, duration: 28 days, oral, Crj:CD",30 mg/kg-day
same,NOAEL,"Rattus norvegicus [6]; short-term, duration: 28 days, oral, F, Crj:CD",60 mg/kg-day
same,NOAEL,Rattus norvegicus [6]; [28],25 mg/kg-day
same,NOAEL,"Mus musculus [11]; subchronic, duration: 13 weeks, B6C3F1",25 mg/kg-day
same,NOEL,Rattus norvegicus [21],< 12.5 mg/kg-day
